Reference: PubChem BioAssay AID1963829 (Molecular Pharmacology Branch, DTP, NCI, 2024)

Test system: 935938-334-R-J1-PDC complex spheroid viability
Test: Anticancer human tumor 935938-334-R-J1-PDC patient-derived small intestine adenocarcinoma cell line growth inhibition [POLQ]
Conditions: for IC50: curve of first compound; for viability, T/C: stronger effect = lower value
Summary of the method: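 Complex spheroid viability model combining PDC tumour cells with endothelial (HUVEC) and MSC stromal cells. Novobiocin, ART-558 or RP6685 were tested singly and in combination with standard and investigational anticancer drugs. Each was titrated in half-log steps from near clinical Cmax, or from 10 microM where Cmax was unknown.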

[1] = second compound 0.0316 µM, first compound 0.0316 µM
[2] = second compound 0.0316 µM, first compound 0.1 µM
[3] = second compound 0.0316 µM, first compound 0.316 µM
[4] = second compound 0.0316 µM, first compound 1 µM
[5] = second compound 0.1 µM, first compound 0.0316 µM
[6] = second compound 0.1 µM, first compound 0.1 µM
[7] = second compound 0.1 µM, first compound 0.316 µM
[8] = second compound 0.1 µM, first compound 1 µM
[9] = second compound 0.316 µM, first compound 0.0316 µM
[10] = second compound 0.316 µM, first compound 0.1 µM
[11] = second compound 0.316 µM, first compound 0.316 µM
[12] = second compound 0.316 µM, first compound 1 µM
[13] = second compound 1 µM, first compound 0.0316 µM
[14] = second compound 1 µM, first compound 0.1 µM
[15] = second compound 1 µM, first compound 0.316 µM
[16] = second compound 1 µM, first compound 1 µM
[17] = second compound 3.16 µM, first compound 0.0316 µM
[18] = second compound 3.16 µM, first compound 0.1 µM
[19] = second compound 3.16 µM, first compound 0.316 µM
[20] = second compound 3.16 µM, first compound 1 µM
[21] = second compound 10 µM, first compound 0.0316 µM
[22] = second compound 10 µM, first compound 0.1 µM
[23] = second compound 10 µM, first compound 0.316 µM
[24] = second compound 10 µM, first compound 1 µM
[25] = second compound 0.0316 µM, first compound 3.16 µM
[26] = second compound 0.0316 µM, first compound 10 µM
[27] = second compound 0.1 µM, first compound 3.16 µM
[28] = second compound 0.1 µM, first compound 10 µM
[29] = second compound 0.316 µM, first compound 3.16 µM
[30] = second compound 0.316 µM, first compound 10 µM
[31] = second compound 1 µM, first compound 3.16 µM
[32] = second compound 1 µM, first compound 10 µM
[33] = second compound 3.16 µM, first compound 3.16 µM
[34] = second compound 3.16 µM, first compound 10 µM
[35] = second compound 10 µM, first compound 3.16 µM
[36] = second compound 10 µM, first compound 10 µM
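Note: spheroids exposed to drugs for seven days before viability read.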
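Throughout, for viability, T/C: 100% = DMSO vehicle control wells.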

`CCc1c2c(nc3ccc(O)cc13)-c1cc3c(c(=O)n1C2)COC(=O)[C@]3(O)CC` + Nc1ccc(C#CCN(C(=O)Cc2ncc(C(F)(F)F)cc2C(F)(F)F)c2ccc(F)cc2)nn1 gave an IC50 (second compound 0.0316 µM) of 0.0202 µM, an IC50 (second compound 0.1 µM) of 0.0171 µM and an IC50 (second compound 0.316 µM) of 0.0183 µM. For the same compound, the IC50 (second compound 1 µM) was 0.0223 µM, the IC50 (second compound 3.16 µM) was 0.0151 µM and the IC50 (second compound 10 µM) was 0.0221 µM. It also gave a viability, T/C (second compound 0.0316 µM, first compound 0.00316 µM) of 83.8%, a viability, T/C (second compound 0.0316 µM, first compound 0.01 µM) of 61.7% and a viability, T/C [1] of 44.2%. The viability, T/C [2] was 28.6%, the viability, T/C [3] was 31.6% and the viability, T/C [4] was 29.2%. For the same compound, the viability, T/C (second compound 0.1 µM, first compound 0.00316 µM) was 93.6%, the viability, T/C (second compound 0.1 µM, first compound 0.01 µM) was 64.3% and the viability, T/C [5] was 33.8%. For the same compound, the viability, T/C [6] was 29.6%, the viability, T/C [7] was 34.7% and the viability, T/C [8] was 32%. The viability, T/C (second compound 0.316 µM, first compound 0.00316 µM) was 108%, the viability, T/C (second compound 0.316 µM, first compound 0.01 µM) was 65.8% and the viability, T/C [9] was 35.1%. For the same compound, the viability, T/C [10] was 36.2%, the viability, T/C [11] was 30.6% and the viability, T/C [12] was 28.9%. It also gave a viability, T/C (second compound 1 µM, first compound 0.00316 µM) of 109%, a viability, T/C (second compound 1 µM, first compound 0.01 µM) of 81.8% and a viability, T/C [13] of 36.1%. For the same compound, the viability, T/C [14] was 32.6%, the viability, T/C [15] was 34.4% and the viability, T/C [16] was 30.1%. It also gave a viability, T/C (second compound 3.16 µM, first compound 0.00316 µM) of 93.2%, a viability, T/C (second compound 3.16 µM, first compound 0.01 µM) of 51.8% and a viability, T/C [17] of 43.9%. For the same compound, the viability, T/C [18] was 40.4%, the viability, T/C [19] was 30.8% and the viability, T/C [20] was 30.6%. It also gave a viability, T/C (second compound 10 µM, first compound 0.00316 µM) of 88.8%, a viability, T/C (second compound 10 µM, first compound 0.01 µM) of 67.9% and a viability, T/C [21] of 41%. The viability, T/C [22] was 37.3%, the viability, T/C [23] was 31% and the viability, T/C [24] was 32.2%.
`CCCS(=O)(=O)Nc1ccc(F)c(C(=O)c2c[nH]c3ncc(-c4ccc(Cl)cc4)cc23)c1F` + Nc1ccc(C#CCN(C(=O)Cc2ncc(C(F)(F)F)cc2C(F)(F)F)c2ccc(F)cc2)nn1 was tested, and the IC50 (second compound 0.0316 µM) was 9.23 µM, the IC50 (second compound 0.1 µM) was 9.61 µM and the IC50 (second compound 0.316 µM) was over 10 µM. It also gave an IC50 (second compound 1 µM) of over 10 µM, an IC50 (second compound 3.16 µM) of 9.37 µM and an IC50 (second compound 10 µM) of 9.98 µM. For the same compound, the viability, T/C [1] was 114%, the viability, T/C [2] was 112% and the viability, T/C [3] was 117%. It also gave a viability, T/C [4] of 135%, a viability, T/C [25] of 113% and a viability, T/C [26] of 45%. It also gave a viability, T/C [5] of 126%, a viability, T/C [6] of 138% and a viability, T/C [7] of 109%. For the same compound, the viability, T/C [8] was 140%, the viability, T/C [27] was 131% and the viability, T/C [28] was 47.3%. For the same compound, the viability, T/C [9] was 118%, the viability, T/C [10] was 121% and the viability, T/C [11] was 90.9%. The viability, T/C [12] was 165%, the viability, T/C [29] was 120% and the viability, T/C [30] was 50.3%. The viability, T/C [13] was 103%, the viability, T/C [14] was 97.4% and the viability, T/C [15] was 95.1%. It also gave a viability, T/C [16] of 112%, a viability, T/C [31] of 129% and a viability, T/C [32] of 63.2%. For the same compound, the viability, T/C [17] was 110%, the viability, T/C [18] was 121% and the viability, T/C [19] was 140%. For the same compound, the viability, T/C [20] was 158%, the viability, T/C [33] was 121% and the viability, T/C [34] was 45.6%. The viability, T/C [21] was 104%, the viability, T/C [22] was 125% and the viability, T/C [23] was 145%. For the same compound, the viability, T/C [24] was 174%, the viability, T/C [35] was 151% and the viability, T/C [36] was 50%.
`C=CC(=O)N1CCN(c2nc(=O)n(-c3c(C)ccnc3C(C)C)c3nc(-c4c(O)cccc4F)c(F)cc23)C(C)C1` (stereo unspecified) + Nc1ccc(C#CCN(C(=O)Cc2ncc(C(F)(F)F)cc2C(F)(F)F)c2ccc(F)cc2)nn1 was tested, and the IC50 (second compound 0.0316 µM) was over 10 µM, the IC50 (second compound 0.1 µM) was over 10 µM and the IC50 (second compound 0.316 µM) was over 10 µM. It also gave an IC50 (second compound 1 µM) of over 10 µM, an IC50 (second compound 3.16 µM) of over 10 µM and an IC50 (second compound 10 µM) of over 10 µM. For the same compound, the viability, T/C [1] was 99.1%, the viability, T/C [2] was 111% and the viability, T/C [3] was 87.1%. For the same compound, the viability, T/C [4] was 128%, the viability, T/C [25] was 125% and the viability, T/C [26] was 112%. For the same compound, the viability, T/C [5] was 90.7%, the viability, T/C [6] was 99.5% and the viability, T/C [7] was 91.2%. For the same compound, the viability, T/C [8] was 138%, the viability, T/C [27] was 122% and the viability, T/C [28] was 107%. The viability, T/C [9] was 106%, the viability, T/C [10] was 106% and the viability, T/C [11] was 87.3%. For the same compound, the viability, T/C [12] was 94.8%, the viability, T/C [29] was 128% and the viability, T/C [30] was 87.4%. The viability, T/C [13] was 91.4%, the viability, T/C [14] was 96.9% and the viability, T/C [15] was 98.4%. It also gave a viability, T/C [16] of 134%, a viability, T/C [31] of 115% and a viability, T/C [32] of 138%. The viability, T/C [17] was 85.1%, the viability, T/C [18] was 89.9% and the viability, T/C [19] was 114%. The viability, T/C [20] was 95.9%, the viability, T/C [33] was 183% and the viability, T/C [34] was 113%. It also gave a viability, T/C [21] of 88.2%, a viability, T/C [22] of 95.8% and a viability, T/C [23] of 116%. For the same compound, the viability, T/C [24] was 89.3%, the viability, T/C [35] was 119% and the viability, T/C [36] was 138%.
